Our source for the MIC values is ChEMBL document CHEMBL2086335, “Three new 12-carbamoylated streptothricins from Streptomyces sp. I08A 1776” (2012).

≈ marks a conversion by molar mass, not a printed value. Some results are limits rather than exact numbers.

Common to all, as to type: functional
One assay relates to Staphylococcus aureus. The assay can be described thus: Antibacterial activity against Staphylococcus aureus ATCC 25923 by microbroth dilution method.
The subject of the next assay is Enterococcus faecalis. The assay can be described thus: Antibacterial activity against Enterococcus faecalis ATCC 29212 by microbroth dilution method. (In general: In broth dilution the organism is exposed to a series of concentrations in liquid medium.)
Another assay concerns Bacillus subtilis. The assay can be described thus: Antibacterial activity against Bacillus subtilis ATCC 6633 by microbroth dilution method.
The test system of assay [1] is Mycobacterium tuberculosis. Kind of assay: Antibacterial activity against Mycobacterium tuberculosis H37Rv by microbroth dilution method.
For assay [2], the system named is Mycolicibacterium smegmatis. The assay can be described thus: Antibacterial activity against Mycobacterium smegmatis MC2 155 by microbroth dilution method. To be noted: str. MC2 155.
In another assay the test system is Pseudomonas aeruginosa. Kind of assay: Antibacterial activity against Pseudomonas aeruginosa ATCC 27853 by microbroth dilution method.
A further assay relates to Morganella morganii. Kind of assay: Antibacterial activity against multidrug-resistant Morganella morganii 07-09 by microbroth dilution method.
A further assay has as its system Escherichia coli. The assay can be described thus: Antibacterial activity against Escherichia coli ATCC 25922 by microbroth dilution method.
The next assay relates to Candida albicans. The assay can be described thus: Antifungal activity against Candida albicans ATCC 10231 by microbroth dilution method.

By MIC is commonly meant the lowest concentration found to suppress growth.

As to `NCCC[C@H](N)CC(=O)NCCC[C@H](N)CC(=O)N[C@@H]1[C@H](O)[C@@H](O)[C@@H](COC(N)=O)O[C@H]1/N=C1\N[C@@H]2[C@H](O)CNC(=O)[C@H]2N1`, the MIC was > 256 µg/mL against Staphylococcus aureus; > 256 µg/mL in the assay on Enterococcus faecalis; 16 µg/mL (≈ 25.4 µM) against Bacillus subtilis; 16 µg/mL (≈ 25.4 µM) in assay [1]; 64 µg/mL (≈ 101 µM) in assay [2]; > 256 µg/mL against Pseudomonas aeruginosa. The minimum inhibitory concentration (MIC) against Morganella morganii is > 256 µg/mL; against Escherichia coli, > 256 µg/mL; with Candida albicans, 32 µg/mL (≈ 50.7 µM).
`CC(=O)N[C@@H](CCCNC(=O)C[C@@H](N)CCCN)CC(=O)N[C@@H]1[C@H](O)[C@@H](O)[C@@H](COC(N)=O)O[C@H]1/N=C1\N[C@@H]2[C@H](O)CNC(=O)[C@H]2N1`: the minimum inhibitory concentration (MIC) against Staphylococcus aureus was > 256 µg/mL; in the assay with Enterococcus faecalis, > 256 µg/mL; in the assay with Bacillus subtilis it was 128 µg/mL (≈ 190 µM); in assay [1], > 256 µg/mL; in [2], > 256 µg/mL; in the assay with Pseudomonas aeruginosa it was > 256 µg/mL. The MIC in the assay with Morganella morganii, with Escherichia coli and against Candida albicans was > 256 µg/mL each time.
Turning to `CC(=O)N[C@@H](CCCNC(=O)C[C@@H](N)CCCNC(=O)C[C@@H](N)CCCN)CC(=O)N[C@@H]1[C@H](O)[C@@H](O)[C@@H](COC(N)=O)O[C@H]1/N=C1\N[C@@H]2[C@H](O)CNC(=O)[C@H]2N1`, the MIC in the assay with Staphylococcus aureus is > 256 µg/mL; against Enterococcus faecalis it was > 256 µg/mL; in the assay with Bacillus subtilis, 64 µg/mL (≈ 79.9 µM); in assay [1], > 256 µg/mL; in [2], > 256 µg/mL; with Pseudomonas aeruginosa, > 256 µg/mL. In addition, the MIC in the assay on Morganella morganii was > 256 µg/mL; in the assay on Escherichia coli, 64 µg/mL (≈ 79.9 µM); in the assay with Candida albicans, > 256 µg/mL.
Turning to `CC(=O)N[C@@H](CCCNC(=O)C[C@@H](N)CCCNC(=O)C[C@@H](N)CCCN)CC(=O)N[C@@H]1[C@H](O)[C@@H](O)[C@@H](COC(N)=O)O[C@H]1/N=C1\N[C@H]([C@H](O)CN)[C@@H](C(=O)O)N1`, the MIC (in the assay on Staphylococcus aureus; in the assay with Enterococcus faecalis; in the assay on Bacillus subtilis; in assay [1]; in [2]; in the assay on Pseudomonas aeruginosa) was > 256 µg/mL each time. For the same compound, the MIC against Morganella morganii, against Escherichia coli and in the assay with Candida albicans was > 256 µg/mL throughout.
`CC(=O)N[C@@H](CCCNC(=O)C[C@@H](N)CCCNC(=O)C[C@@H](N)CCCN)CC(=O)N[C@@H]1[C@H](O)[C@@H](OC(N)=O)[C@@H](CO)O[C@H]1/N=C1\N[C@H]([C@H](O)CN)[C@@H](C(=O)O)N1`: the MIC is > 256 µg/mL in the assay on Staphylococcus aureus; > 256 µg/mL against Enterococcus faecalis; 64 µg/mL (≈ 78.2 µM) against Bacillus subtilis; > 256 µg/mL in [1]; > 256 µg/mL in assay [2]; > 256 µg/mL in the assay with Pseudomonas aeruginosa. Moreover, the figures for the MIC against Morganella morganii, with Escherichia coli and against Candida albicans were > 256 µg/mL, 64 µg/mL (≈ 78.2 µM) and > 256 µg/mL, respectively.
`NNC(=O)c1ccncc1` [ISONIAZID] returned a minimum inhibitory concentration (MIC) in assay [1] of 0.0625 µg/mL (≈ 0.456 µM).
As to `C[C@H]1COc2c(N3CCN(C)CC3)c(F)cc3c(=O)c(C(=O)O)cn1c23.C[C@H]1COc2c(N3CCN(C)CC3)c(F)cc3c(=O)c(C(=O)O)cn1c23.O` [LEVOFLOXACIN], the minimum inhibitory concentration (MIC) with Staphylococcus aureus came to 0.12 µg/mL; against Enterococcus faecalis, 0.5 µg/mL; with Bacillus subtilis it was 0.12 µg/mL; in assay [1], 0.5 µg/mL; in [2], 1 µg/mL; in the assay with Pseudomonas aeruginosa, 0.25 µg/mL. Besides, the MIC against Morganella morganii is 16 µg/mL; in the assay with Candida albicans, > 256 µg/mL.
For `CO[C@H]1/C=C/O[C@@]2(C)Oc3c(C)c(O)c4c(O)c(c(/C=N/N5CCN(C)CC5)c(O)c4c3C2=O)NC(=O)/C(C)=C\C=C\[C@H](C)[C@H](O)[C@@H](C)[C@@H](O)[C@@H](C)[C@H](OC(C)=O)[C@@H]1C` [RIFAMPIN], the MIC in [1] came out at 0.0625 µg/mL (≈ 0.0759 µM).
Consider `NCCC[C@H](N)CC(=O)NCCC[C@H](N)CC(=O)N[C@@H]1[C@H](O)[C@@H](OC(N)=O)[C@@H](CO)O[C@H]1NC1=N[C@@H]2C(=O)NC[C@@H](O)[C@H]2N1` [STREPTOTHRICIN E], for which the MIC against Staphylococcus aureus stood at 4 µg/mL (≈ 6.34 µM); against Enterococcus faecalis, 64 µg/mL (≈ 101 µM); against Bacillus subtilis it was 1 µg/mL (≈ 1.59 µM); in assay [1], 1 µg/mL (≈ 1.59 µM); in assay [2], 4 µg/mL (≈ 6.34 µM); against Pseudomonas aeruginosa, 64 µg/mL (≈ 101 µM). Also, the MIC came out at 4 µg/mL (≈ 6.34 µM) in the assay on Morganella morganii, 16 µg/mL (≈ 25.4 µM) with Escherichia coli and 1 µg/mL (≈ 1.59 µM) in the assay on Candida albicans.
